Literature values in US20160367500A1 (FERTILIFY INC., priority 2013, published 2016).
Where two headings read alike, the source gives them in different places.

How the values were obtained:
[1] = fortification of food with folic acid
[2] = system: mouse hepatocyte mitochondria
[3] = system: methylglyoxal-treated oocytes
[4] = not given; remark: listed apart in the source
[5] = system: anti-Müllerian hormone (AMH); settings: women with sufficient levels of vitamin D
[6] = system: ROS-mediated embryo-toxicity in cultures; settings: vitamin C and vitamin E together, ex-vivo murine models
[7] = diet deficient in vitamin D versus vitamin D sufficient diet (Halloran 1980)

Q: What does the source list for `COC1=C(OC)C(=O)C(C/C=C(\C)CC/C=C(\C)CC/C=C(\C)CC/C=C(\C)CC/C=C(\C)CC/C=C(\C)CC/C=C(\C)CC/C=C(\C)CC/C=C(\C)CCC=C(C)C)=C(C)C1=O` [Coenzyme Q10, coenzyme Q10]?
A: safely tolerable dose (in vivo): up to 1200 mg per day; litter size (aged female mice; 52-week-old mice, versus control groups without coenzyme Q10): significantly larger litter sizes; number of ovulated eggs after stimulation (aged female mice; aged female mice): significantly increases the number of ovulated eggs

Q: Which “rate of neural-tube defects” value [1] does the source give for `Nc1nc2ncc(CNc3ccc(C(=O)N[C@@H](CCC(=O)O)C(=O)O)cc3)nc2c(=O)[nH]1` [Folic Acid, folic acid] here?
A: Its value is “significant reduction in the rate of neural-tube defects”.

Q: With `O=C(O)c1cc(C(=O)O)c2c(n1)C(=O)C(=O)c1cc(C(=O)O)[nH]c1-2` [PQQ, pyrroloquinoline quinone] as the compound, how does the “upper limit (in words)” value (adults over the age of 18) read?
A: Its value is “(no known upper limit)”.

Q: And the mitochondrial biogenesis ([2]; aging cells)?
A: Its mitochondrial biogenesis is “promotes the spontaneous generation of new mitochondria within aging cells”.

Q: What about the “protection from oxidative stress” value ([2]; mouse hepatocyte mitochondria) of the same compound?
A: The value was “protects mouse hepatocyte mitochondria from oxidative stress”.

Q: Which “adverse effects caused by methylglyoxal (inhibition of oocyte maturation, disruption of spindle assembly)” value [3] does the source give for `Oc1ccc(C=Cc2cc(O)cc(O)c2)cc1` [Resveratrol, resveratrol] here?
A: Its value is “can alleviate the adverse effects caused by methylglyoxal”.

Q: And the “excessive ROS production, aberrant mitochondrial distribution, high level lipid peroxidation” value ([3]; methylglyoxal-induced cytotoxic changes)?
A: Its value is “can block these cytotoxic changes”.

Q: What about the “DNA double strands breaks” value ([3]; methylglyoxal-treated oocytes) of the same compound?
A: Its value is “decreased”.

Q: Which “pregnancy rate per IVF cycle” value ([4]; women whose vitamin D levels were insufficient or deficient) does the source give for vitamin D here?
A: The value was 34.7%.

Q: What about the “pregnancy rate per IVF cycle” value ([4]; women with sufficient levels of vitamin D) of the same compound?
A: Its value is 52.5%.

Q: And the reduction of fertility (female rats; [7])?
A: The reduction of fertility was 75%.

Q: And the “reduction of litter size” value (female rats; [7])?
A: The value was 30%.

Q: And the litter size (female rats; diet lacking vitamin D before mating versus diet containing vitamin D (Hickie 1983))?
A: The litter size was “significantly smaller litters”.

Q: And the AMH levels [5]?
A: The AMH levels was “increased levels of anti-Müllerian hormone (AMH)”.

Q: What does the source list for vitamin E?
A: tolerable upper limit of intake (Health Canada Nutrition Tables (2013)): 1000 mg per day; IVF [6]: improved IVF; rate of embryo development [6]: increased the rate of embryo development
